Measured values published in PubChem BioAssay AID2060600 (Molecular Pharmacology Branch, DTP, NCI, 2025).
pIC50: −log10 of the molar value.

Test system: 996289-038-R-J1-PDC complex spheroid viability
Test: Anticancer human tumor 996289-038-R-J1-PDC patient-derived colon adenocarcinoma cell line growth inhibition [CLK]
Details: for pIC50: curve of first compound; for viability, T/C: stronger effect = lower value
Summary of the method: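 Multi-cell-type spheroids combined patient-derived tumor cells with HUVEC endothelial cells and human mesenchymal stem cells. Paired agents were dosed in half-log steps down from about clinical Cmax, or from 10 microM where Cmax was unknown.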

[1] = second compound 0.0316 µM, first compound 0.0316 µM
[2] = second compound 0.0316 µM, first compound 0.1 µM
[3] = second compound 0.0316 µM, first compound 0.316 µM
[4] = second compound 0.0316 µM, first compound 1 µM
[5] = second compound 0.0316 µM, first compound 3.16 µM
[6] = second compound 0.0316 µM, first compound 10 µM
[7] = second compound 0.1 µM, first compound 0.0316 µM
[8] = second compound 0.1 µM, first compound 0.1 µM
[9] = second compound 0.1 µM, first compound 0.316 µM
[10] = second compound 0.1 µM, first compound 1 µM
[11] = second compound 0.1 µM, first compound 3.16 µM
[12] = second compound 0.1 µM, first compound 10 µM
[13] = second compound 0.316 µM, first compound 0.0316 µM
[14] = second compound 0.316 µM, first compound 0.1 µM
[15] = second compound 0.316 µM, first compound 0.316 µM
[16] = second compound 0.316 µM, first compound 1 µM
[17] = second compound 0.316 µM, first compound 3.16 µM
[18] = second compound 0.316 µM, first compound 10 µM
[19] = second compound 1 µM, first compound 0.0316 µM
[20] = second compound 1 µM, first compound 0.1 µM
[21] = second compound 1 µM, first compound 0.316 µM
[22] = second compound 1 µM, first compound 1 µM
[23] = second compound 1 µM, first compound 3.16 µM
[24] = second compound 1 µM, first compound 10 µM
[25] = second compound 3.16 µM, first compound 0.0316 µM
[26] = second compound 3.16 µM, first compound 0.1 µM
[27] = second compound 3.16 µM, first compound 0.316 µM
[28] = second compound 3.16 µM, first compound 1 µM
[29] = second compound 3.16 µM, first compound 3.16 µM
[30] = second compound 3.16 µM, first compound 10 µM
[31] = second compound 10 µM, first compound 0.0316 µM
[32] = second compound 10 µM, first compound 0.1 µM
[33] = second compound 10 µM, first compound 0.316 µM
[34] = second compound 10 µM, first compound 1 µM
[35] = second compound 10 µM, first compound 3.16 µM
[36] = second compound 10 µM, first compound 10 µM
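Note: spheroids exposed to the agents for 7 days before readout.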

CC(C)CC(NC(=O)C(Cc1ccccc1)NC(=O)c1cnccn1)B(O)O (stereo unspecified) + CNC(=O)c1ccc(Nc2nc(OC3CCCC3)c3c(-c4ccc5nc(C)oc5c4)c[nH]c3n2)c(OC)c1
pIC50 (second compound 0.0316 µM): 8.34
pIC50 (second compound 0.1 µM): 8.38
pIC50 (second compound 0.316 µM): 8.74
pIC50 (second compound 1 µM): 8.88
pIC50 (second compound 3.16 µM): 8.94
pIC50 (second compound 10 µM): 8.96
viability, T/C (second compound 0.0316 µM, first compound 0.000949 µM): 121%
viability, T/C (second compound 0.0316 µM, first compound 0.003 µM): 76.2%
viability, T/C (second compound 0.0316 µM, first compound 0.00949 µM): 4.49%
viability, T/C (second compound 0.0316 µM, first compound 0.03 µM): 0.95%
viability, T/C (second compound 0.0316 µM, first compound 0.0949 µM): 3.14%
viability, T/C (second compound 0.0316 µM, first compound 0.3 µM): 0.51%
viability, T/C (second compound 0.1 µM, first compound 0.000949 µM): 139%
viability, T/C (second compound 0.1 µM, first compound 0.003 µM): 70%
viability, T/C (second compound 0.1 µM, first compound 0.00949 µM): 1.94%
viability, T/C (second compound 0.1 µM, first compound 0.03 µM): 0.61%
viability, T/C (second compound 0.1 µM, first compound 0.0949 µM): 0.54%
viability, T/C (second compound 0.1 µM, first compound 0.3 µM): 0.26%
viability, T/C (second compound 0.316 µM, first compound 0.000949 µM): 76.2%
viability, T/C (second compound 0.316 µM, first compound 0.003 µM): 30.4%
viability, T/C (second compound 0.316 µM, first compound 0.00949 µM): 0.98%
viability, T/C (second compound 0.316 µM, first compound 0.03 µM): 1.34%
viability, T/C (second compound 0.316 µM, first compound 0.0949 µM): 0.59%
viability, T/C (second compound 0.316 µM, first compound 0.3 µM): 1.22%
viability, T/C (second compound 1 µM, first compound 0.000949 µM): 66.4%
viability, T/C (second compound 1 µM, first compound 0.003 µM): 9.51%
viability, T/C (second compound 1 µM, first compound 0.00949 µM): 0.47%
viability, T/C (second compound 1 µM, first compound 0.03 µM): 0.42%
viability, T/C (second compound 1 µM, first compound 0.0949 µM): 3.6%
viability, T/C (second compound 1 µM, first compound 0.3 µM): 1.03%
viability, T/C (second compound 3.16 µM, first compound 0.000949 µM): 58.1%
viability, T/C (second compound 3.16 µM, first compound 0.003 µM): 6.51%
viability, T/C (second compound 3.16 µM, first compound 0.00949 µM): 1.11%
viability, T/C (second compound 3.16 µM, first compound 0.03 µM): 0.54%
viability, T/C (second compound 3.16 µM, first compound 0.0949 µM): 0.85%
viability, T/C (second compound 3.16 µM, first compound 0.3 µM): 1.44%
viability, T/C (second compound 10 µM, first compound 0.000949 µM): 56.3%
viability, T/C (second compound 10 µM, first compound 0.003 µM): 6.54%
viability, T/C (second compound 10 µM, first compound 0.00949 µM): 1.51%
viability, T/C (second compound 10 µM, first compound 0.03 µM): 0.65%
viability, T/C (second compound 10 µM, first compound 0.0949 µM): 0.7%
viability, T/C (second compound 10 µM, first compound 0.3 µM): 2.05%

CC1COCCN1c1cc(C2(S(C)(=N)=O)CC2)nc(-c2ccnc3[nH]ccc23)n1 (stereo unspecified) + CNC(=O)c1ccc(Nc2nc(OC3CCCC3)c3c(-c4ccc5nc(C)oc5c4)c[nH]c3n2)c(OC)c1
pIC50 (second compound 0.0316 µM): < 5.00
pIC50 (second compound 0.1 µM): < 5.00
pIC50 (second compound 0.316 µM): < 5.00
pIC50 (second compound 1 µM): 5.44
pIC50 (second compound 3.16 µM): 5.55
pIC50 (second compound 10 µM): 5.67
viability, T/C [1]: 116%
viability, T/C [2]: 126%
viability, T/C [3]: 118%
viability, T/C [4]: 117%
viability, T/C [5]: 122%
viability, T/C [6]: 100%
viability, T/C [7]: 129%
viability, T/C [8]: 135%
viability, T/C [9]: 129%
viability, T/C [10]: 122%
viability, T/C [11]: 121%
viability, T/C [12]: 88.1%
viability, T/C [13]: 84.8%
viability, T/C [14]: 83%
viability, T/C [15]: 79.4%
viability, T/C [16]: 73.2%
viability, T/C [17]: 73.8%
viability, T/C [18]: 58.5%
viability, T/C [19]: 70.3%
viability, T/C [20]: 71.5%
viability, T/C [21]: 68.8%
viability, T/C [22]: 57.5%
viability, T/C [23]: 54.2%
viability, T/C [24]: 36.9%
viability, T/C [25]: 68.5%
viability, T/C [26]: 60.9%
viability, T/C [27]: 55.8%
viability, T/C [28]: 64%
viability, T/C [29]: 46%
viability, T/C [30]: 39.8%
viability, T/C [31]: 59.3%
viability, T/C [32]: 55.7%
viability, T/C [33]: 57%
viability, T/C [34]: 53.7%
viability, T/C [35]: 48.1%
viability, T/C [36]: 31%

O=C(c1cc(Cc2n[nH]c(=O)c3ccccc23)ccc1F)N1CCN(C(=O)C2CC2)CC1 + CNC(=O)c1ccc(Nc2nc(OC3CCCC3)c3c(-c4ccc5nc(C)oc5c4)c[nH]c3n2)c(OC)c1
pIC50 (second compound 0.0316 µM): < 5.00
pIC50 (second compound 0.1 µM): < 5.00
pIC50 (second compound 0.316 µM): < 5.00
pIC50 (second compound 1 µM): < 5.00
pIC50 (second compound 3.16 µM): < 5.00
pIC50 (second compound 10 µM): < 5.00
viability, T/C [1]: 126%
viability, T/C [2]: 113%
viability, T/C [3]: 113%
viability, T/C [4]: 124%
viability, T/C [5]: 120%
viability, T/C [6]: 103%
viability, T/C [7]: 122%
viability, T/C [8]: 121%
viability, T/C [9]: 116%
viability, T/C [10]: 117%
viability, T/C [11]: 114%
viability, T/C [12]: 115%
viability, T/C [13]: 78.9%
viability, T/C [14]: 74.4%
viability, T/C [15]: 76.3%
viability, T/C [16]: 75.4%
viability, T/C [17]: 85.3%
viability, T/C [18]: 71.3%
viability, T/C [19]: 70.8%
viability, T/C [20]: 65.8%
viability, T/C [21]: 64%
viability, T/C [22]: 60.6%
viability, T/C [23]: 69.3%
viability, T/C [24]: 61.3%
viability, T/C [25]: 62.6%
viability, T/C [26]: 57.5%
viability, T/C [27]: 58.1%
viability, T/C [28]: 60.2%
viability, T/C [29]: 64%
viability, T/C [30]: 58.5%
viability, T/C [31]: 62.6%
viability, T/C [32]: 59.4%
viability, T/C [33]: 61%
viability, T/C [34]: 58.3%
viability, T/C [35]: 61.1%
viability, T/C [36]: 52.1%
